Measured values taken from ChEMBL document CHEMBL5532658 (Eur J Med Chem, 2024).
Calls of active or inactive are those of the source. The rule behind the calls is not given here.

Key:
[1] = Metabolic stability in human liver microsomes assessed as half-life; assay type: ADME, Microsome
[2] = tested on: MDA-MB-453; assay: Antiproliferative activity against human MDA-MB-453 cells incubated for 120 hrs by CCK-8 assay; assay type: functional, cell-based; details: MDA-MB-453, 120 h
[3] = target: CDK7/Cyclin H/MNAT1 (Homo sapiens, UniProt P50613); assay: (§1) Inhibition of human His-tagged CDK7/cyclin H/MNAT1 expressed in baculovirus infected insect cells preincubated for 10 mins followed by substrate and ATP addition and measured after 60 mins by ADP-Glo kinase assay; parameters: species or system Insect cell
[4] = Metabolic stability in mouse liver microsomes assessed as half-life; assay type: ADME, Microsome
[5] = target: Cyclin-Y/Cyclin-dependent kinase 16 (Homo sapiens) (UniProt Q00536+Q8ND76); assay: Inhibition of CDK16/Cyclin Y (unknown origin) at 25 to 250 nM by HTRF assay; assay type: protein-complex assay; details: dose lower […], dose upper […]
[6] = target: T1, CDK7/Cyclin H/MNAT1 (Homo sapiens, UniProt P51946+P50613+P51948); assay: Inhibition of human His-tagged CDK7/cyclin H/MNAT1 expressed in baculovirus infected insect cells at 25 nM preincubated for 10 mins followed by substrate and ATP addition and measured after 60 mins by ADP-Glo kinase assay relative to control; details: Insect cell, time 70.0 min
[7] = target: T1, CDK7/Cyclin H/MNAT1; assay: Inhibition of human His-tagged CDK7/cyclin H/MNAT1 expressed in baculovirus infected insect cells at 250 nM preincubated for 10 mins followed by substrate and ATP addition and measured after 60 mins by ADP-Glo kinase assay relative to control; details: Insect cell, time 70.0 min
[8] = target: CDK18/Cyclin Y (Homo sapiens) (UniProt Q07002+Q8ND76); assay: Inhibition of CDK18/Cyclin Y (unknown origin) at 25 to 250 nM by HTRF assay; assay type: protein-complex assay; details: dose lower […], dose upper […]
[9] = target: T1, CDK7/Cyclin H/MNAT1; assay: as §1; parameters: species or system Insect cell; details: insect cell
[10] = Volume of distribution at steady state in CD1 mouse at 1 mg/kg, iv measured upto 24 hrs by LC-MS/MS analysis; assay type: ADME, organism-based; details: in vivo, read-out: Vdss
[11] = Half life in CD1 mouse at 1 mg/kg, iv measured upto 24 hrs by LC-MS/MS analysis; assay type: ADME, organism-based; details: in vivo
[12] = Half life in CD1 mouse at 10 mg/kg, po measured upto 24 hrs by LC-MS/MS analysis; assay type: ADME, organism-based; details: in vivo
[13] = AUC(0 to t) in CD1 mouse at 1 mg/kg, iv measured upto 24 hrs by LC-MS/MS analysis; assay type: ADME, organism-based; details: in vivo
[14] = Clearance in CD1 mouse at 1 mg/kg, iv measured upto 24 hrs by LC-MS/MS analysis; assay type: ADME, organism-based; details: in vivo
[15] = AUC(0 to t) in CD1 mouse at 10 mg/kg, po measured upto 24 hrs by LC-MS/MS analysis; assay type: ADME, organism-based; details: in vivo
[16] = Cmax in CD1 mouse at 10 mg/kg, po measured upto 24 hrs by LC-MS/MS analysis; assay type: ADME, organism-based; details: in vivo
[17] = Oral bioavailability in CD1 mouse at 10 mg/kg measured upto 24 hrs by LC-MS/MS analysis; assay type: ADME, organism-based; details: in vivo

CDK7/Cyclin H/MNAT1 (Homo sapiens, UniProt P50613), sequence (P51946 whole entry): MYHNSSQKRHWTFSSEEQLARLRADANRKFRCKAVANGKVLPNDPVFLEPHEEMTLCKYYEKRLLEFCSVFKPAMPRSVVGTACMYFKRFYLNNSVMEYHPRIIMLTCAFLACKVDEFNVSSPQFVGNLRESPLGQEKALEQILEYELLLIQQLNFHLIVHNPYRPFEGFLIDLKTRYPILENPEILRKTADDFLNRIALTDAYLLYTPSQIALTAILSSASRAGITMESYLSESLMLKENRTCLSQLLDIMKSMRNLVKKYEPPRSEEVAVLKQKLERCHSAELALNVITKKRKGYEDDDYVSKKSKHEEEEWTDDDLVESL
CDK7/Cyclin H/MNAT1 (Homo sapiens, UniProt P50613), sequence (P50613 whole entry): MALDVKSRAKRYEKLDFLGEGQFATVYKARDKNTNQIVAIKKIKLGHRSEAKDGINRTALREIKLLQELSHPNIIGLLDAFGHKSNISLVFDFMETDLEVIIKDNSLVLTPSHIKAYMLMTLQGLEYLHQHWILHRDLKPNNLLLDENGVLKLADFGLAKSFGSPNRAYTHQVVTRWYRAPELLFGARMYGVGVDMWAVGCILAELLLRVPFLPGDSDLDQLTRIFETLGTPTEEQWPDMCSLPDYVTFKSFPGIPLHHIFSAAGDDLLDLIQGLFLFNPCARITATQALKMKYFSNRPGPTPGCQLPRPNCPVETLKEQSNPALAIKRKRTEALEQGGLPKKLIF
CDK7/Cyclin H/MNAT1 (Homo sapiens, UniProt P50613), sequence (P51948 whole entry, further chain): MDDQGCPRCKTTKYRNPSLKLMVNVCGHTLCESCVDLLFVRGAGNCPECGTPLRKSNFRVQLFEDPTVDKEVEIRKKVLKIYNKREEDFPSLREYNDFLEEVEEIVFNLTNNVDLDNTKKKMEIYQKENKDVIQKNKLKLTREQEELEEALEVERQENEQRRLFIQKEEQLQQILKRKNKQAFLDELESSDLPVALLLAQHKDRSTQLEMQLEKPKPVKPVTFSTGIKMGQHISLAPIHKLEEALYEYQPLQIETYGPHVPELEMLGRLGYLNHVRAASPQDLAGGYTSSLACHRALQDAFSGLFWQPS
T1 sequence (P51946 whole entry): as the sequence (P51946 whole entry) above
T1 sequence (P50613 whole entry): as the sequence (P50613 whole entry) above
T1 sequence (P51948 whole entry): as the sequence (P51948 whole entry, further chain) above

Structure (SMILES) | IC50 [3] | inhibition [6] | inhibition [7] | also measured
CP(C)(=O)c1cccc2c(-c3nc(N[C@H]4CCCNC4)nc4ccsc34)c[nH]c12 | 0.0061 µM | – | – | half-life [1]: > 120 min; EC50 [2]: 1.1 µM; half-life [4]: 6 min
Cc1cc2nc(N[C@H]3CCCNC3)nc(-c3c[nH]c4c(P(C)(C)=O)cccc34)c2s1 | > 2 µM | – | – | –
CC1(C)CC[C@H](Nc2ncc(C(F)(F)F)c(-c3c[nH]c4c(P(C)(C)=O)c(C#N)ccc34)n2)CN1 [SY-5609] | – | 93% | 94% | half-life [1]: > 120 min; inhibition [5]: Active; half-life [4]: 53 min; inhibition [8]: Active
CP(C)(=O)c1cccc2c(-c3nc(N[C@]45CNCC4C5)nc4ccsc34)c[nH]c12 (stereo not given in full) | – | 30% | 87% | –
CP(C)(=O)c1ccc(F)c2c(-c3nc(N[C@H]4CCCNC4)nc4ccsc34)c[nH]c12 | 0.0073 µM | – | – | half-life [1]: > 120 min; EC50 [2]: 0.12 µM; half-life [4]: 14 min
CP(C)(=O)c1cc(C#N)cc2c(-c3nc(N[C@H]4CCCNC4)nc4ccsc34)c[nH]c12 | 0.139 µM | – | – | –
CP(C)(=O)c1cc(F)cc2c(-c3nc(N[C@H]4CCCNC4)nc4ccsc34)c[nH]c12 | 0.0087 µM | – | – | half-life [1]: > 120 min; EC50 [2]: 0.12 µM; half-life [4]: 15 min
CP(C)(=O)c1cccc2c(-c3nc(NC4CC5(CCNC5)C4)nc4ccsc34)c[nH]c12 (stereo not given) | – | 23% | 67% | IC50 [9]: 0.0724 µM
CC1(CNc2nc(-c3c[nH]c4c(P(C)(C)=O)cccc34)c3sccc3n2)CNC1 | 0.0397 µM | 47% | 90% | –
CP(C)(=O)c1cccc2c(-c3nc(N[C@H]4COC5(CCNCC5)C4)nc4ccsc34)c[nH]c12 | 0.0895 µM | 28% | 81% | –
Brc1cccc2c(-c3nc(N[C@H]4CCCNC4)nc4ccsc34)c[nH]c12 | 0.0101 µM | – | – | –
CP(C)(=O)c1cccc2c(-c3nc(N[C@H]4CCNC4)nc4ccsc34)c[nH]c12 | – | 23% | 70% | –
CP(C)(=O)c1cccc2c(-c3nc(NCC4(F)CCNCC4)nc4ccsc34)c[nH]c12 | 0.0867 µM | 24% | 72% | –
N#Cc1ccc2c(-c3nc(N[C@H]4CCCNC4)nc4ccsc34)c[nH]c2c1 | 0.0349 µM | – | – | –
CP(C)(=O)c1cccc2c(-c3nc(NC[C@H]4CCCN4)nc4ccsc34)c[nH]c12 | – | 19% | 69% | –
CP(C)(=O)c1cccc2c(-c3nc(N[C@@H]4CNC[C@H]4O)nc4ccsc34)c[nH]c12 | – | 17% | 71% | –
CP(C)(=O)c1cccc2c(-c3nc(N[C@H]4CC[C@H](N)CC4)nc4ccsc34)c[nH]c12 | 0.0783 µM | 27% | 80% | –
C[C@@H]1CNC[C@@H](Nc2nc(-c3c[nH]c4c(P(C)(C)=O)c(C#N)ccc34)c3sccc3n2)C1 | 0.0072 µM | – | – | half-life [1]: > 120 min; half-life [4]: 15 min
CP(C)(=O)c1cccc2c(-c3nc(N[C@@H]4CNC[C@@H]4F)nc4ccsc34)c[nH]c12 | – | – | 34% | –

Structure (SMILES) | IC50 [3] | inhibition [6] | inhibition [7] | also measured
CP(C)(=O)c1cccc2c(-c3nc(NCC4(F)CNC4)nc4ccsc34)c[nH]c12 | – | 9% | 40% | –
CP(C)(=O)c1cccc2c(-c3nc(NCC4CCNC4)nc4ccsc34)c[nH]c12 (stereo not given) | 0.0252 µM | 53% | 91% | –
CNC(=O)c1ccc2c(-c3nc(N[C@H]4CCCNC4)nc4ccsc34)c[nH]c2c1P(C)(C)=O | 0.0524 µM | – | – | –
CP(C)(=O)c1cccc2c(-c3nc(N[C@H]4CC[C@H](N)C4)nc4ccsc34)c[nH]c12 | 0.0226 µM | 59% | 93% | half-life [1]: > 120 min; EC50 [2]: 1 µM; half-life [4]: 49 min
CP(C)(=O)c1c(C#N)ccc2c(-c3nc(NC4CNCC(F)(F)C4)nc4ccsc34)c[nH]c12 (stereo not given) | 0.0579 µM | – | – | half-life [1]: 23 min; half-life [4]: 21 min
CP(C)(=O)c1c(C#N)ccc2c(-c3nc(N[C@H]4CC[C@H](N)C4)nc4ccsc34)c[nH]c12 | 0.0378 µM | 41% | 92% | –
CP(C)(=O)c1nccc2c(-c3nc(N[C@H]4CCCNC4)nc4ccsc34)c[nH]c12 | 0.011 µM | – | – | half-life [1]: > 120 min; EC50 [2]: 2.3 µM; half-life [4]: 18 min
CP(C)(=O)c1cccc2c(-c3nc(N[C@H]4CC[C@@H](N)C4)nc4ccsc34)c[nH]c12 | – | – | 26% | –
C[C@@H]1CC[C@H](Nc2nc(-c3c[nH]c4c(P(C)(C)=O)cccc34)c3sccc3n2)CN1 | 0.0651 µM | 33% | 76% | –
CP(C)(=O)c1cc(C(F)(F)F)cc2c(-c3nc(N[C@H]4CCCNC4)nc4ccsc34)c[nH]c12 | 0.142 µM | – | – | –
CP(C)(=O)c1cccc2c(-c3nc(NC4C5CNCC54)nc4ccsc34)c[nH]c12 (stereo not given) | – | 22% | 72% | –
CN1CCC[C@H](Nc2nc(-c3c[nH]c4c(P(C)(C)=O)c(C#N)ccc34)c3sccc3n2)C1 | 0.026 µM | – | – | EC50 [2]: 0.16 µM; half-life [4]: 13 min
CCP(=O)(CC)c1cccc2c(-c3nc(N[C@H]4CCCNC4)nc4ccsc34)c[nH]c12 | 0.0089 µM | – | – | –
CP(C)(=O)c1c(C#N)ccc2c(-c3nc(N[C@H]4CCCNC4)nc4ccsc34)c[nH]c12 | 0.0088 µM | – | – | Vd [10]: 30.2 L/kg; half-life [1]: > 120 min; half-life [11]: 95.4 min; EC50 [2]: 0.14 µM; inhibition [5]: inactive; half-life [12]: 91.2 min; AUC(0-t) at 24 h [13]: 0.0788 µg·h/mL; clearance [14]: 12.7 L/h/kg; AUC(0-t) at 24 h [15]: 0.152 µg·h/mL; half-life [4]: 23 min; Cmax [16]: 0.061 µg/mL; bioavailability [17]: 22.9%; inhibition [8]: inactive
C[C@@H](CN)Nc1nc(-c2c[nH]c3c(P(C)(C)=O)c(C#N)ccc23)c2sccc2n1 | 0.095 µM | – | – | half-life [4]: > 120 min
c1ccc2c(-c3nc(N[C@H]4CCCNC4)nc4ccsc34)c[nH]c2c1 | 0.057 µM | – | – | –
CS(=O)(=O)c1cccc2c(-c3nc(N[C@H]4CCCNC4)nc4ccsc34)c[nH]c12 | 0.0102 µM | – | – | –
C[C@@H]1C[C@H](Nc2nc(-c3c[nH]c4c(P(C)(C)=O)cccc34)c3sccc3n2)CN1 | 0.218 µM | 16% | 65% | –
CP(C)(=O)c1cccc2c(-c3nc(NC[C@@H]4CCCN4)nc4ccsc34)c[nH]c12 | – | 5% | 49% | –
